Laboratory results as given in patent US11779582B2, “Composition for preventing or treating metastatic ovarian cancer, endometrial cancer or breast cancer” (LEMONEX INC., priority 2017, dated 2023).

Legend:
Type in all cases: cell-based
[1] = tested on: sphere cultured SKOV3ip1 ovarian cancer cells; assay: crystal violet cell viability, 3D sphere culture; settings: for cell viability: sphere cultured SKOV3ip1, 72 hours, different concentrations, crystal violet colorimeter (FIG. 3)
Experimental: (§1) For 3D sphere culture, SKOV3ip1 cells (1×10^6) were dispensed on ultra-low adherent 6-well plate (Corning NY, USA), and then, cultured in 5% CO2 incubator using RPMI 1640 medium supplemented with 10% fetal bovine serum (Gibco, NY, USA) and 10 U/ml penicillin/streptomycin (Gibco).
In order to assess the cell viability in the sphere cultured cells, the SKOV3ip1 cells (5×10^4) were dispensed on the super-low adherent 24-well plate and cultured overnight. The cells were harvested from each well and the commercial 24-well plate was moved, followed by further incubation for 12 hours. The adhered and visualized cells were stained with 0.2% crystal violet solution for 20 minutes while gently agitating the same. The stained cells were washed with distilled water until a clean background is observed. For assessment using a colorimeter, the crystal violet dye was extracted with 1% SDS/PBS and absorbance was measured at 570 nm wavelength by EMax PLUS microplate reader (Molecular Device, USA).
(§2) The monolayer cultured or sphere cultured SKOV3ip1 cells were treated with the tyrosine kinase inhibitor and paclitaxel for 72 hours, the cell viability was determined by the crystal violet colorimeter, and results thereof are shown in FIG. 3.
Since the cell survival of the sphere cultured SKOV3ip1 cells is inhibited by BGJ398 treatment, whether such cell survival inhibition is intermediated through JAK/STAT3 signaling pathway was further examined. For this purpose, the selective JAK tyrosine kinase inhibitor AG490 was used at different concentrations of 3.125 to 50 μM in order to treat the monolayer cultured or sphere cultured SKOV3ip1 cells, and after 72 hours, whether it affects the cell viability and AKT and STAT3 activation was examined through crystal violet staining and immunostaining assay, and results thereof are shown in FIG. 7. Actin was used as a loading control group.
Under this ground, when administering BGJ398 in combination with paclitaxel typically used as the existing primary anticancer drug for ovarian cancer, whether paclitaxel resistance of the sphere cultured cells is overcome and improved was determined.

[2] = tested on: AKT and STAT3 phosphorylation in sphere cultured SKOV3ip1 cells; assay: immunostaining of AKT and STAT3 phosphorylation, sphere culture; settings: for phosphorylated AKT at Ser473: sphere cultured, 5 μM BGJ398, 3 μM TAE648, 5 μM imatinib, 72 hours (FIG. 6)
From the text: In order to identify whether a change in signaling pathways associated with cell survival appears or not according to 2D monolayer culture (2D MC) and 3D sphere culture (3D SC), immunostaining was implemented. More particularly, after culturing SKOV3ip1 cells (1×10^6) by 2D monolayer culture or 3D sphere culture described in section 1.1, expression of cell-signaling molecules including AKT, STAT3, p42/44 ERK and p38 MAPK was detected and activation states in the monolayer cultured cells and the sphere cultured cells were compared. The monolayer cultured or sphere cultured SKOV3ip1 cells were harvested and washed once with ice-cold 1× phosphate buffered saline, followed by dissolving the same in 100 μl ice-cold RIPA buffer (20 mM Tris-Cl, pH 8.0, 125 mM NaCl, […], 1 mM ethylene diamine tetraacetic acid, 1% Triton X-100, 0.5% sodium deoxycholate, 0.1% sodium dodecyl sulfate, 1× complete protease inhibitor cocktail (Roche, Mannheim, Germany)) on ice. After assessing the protein concentration using a Bradford Protein assay kit (Biorad, CA, USA), the same amount of proteins (30 μg) was separated by SDS-PAGE and moved to a nitrocellulose membrane, followed by immunostaining the same using a horseradish peroxide conjugated second antibody and a specific antibody. An immune activation band was detected with SuperSignal West Pico Chemiluminescent Substrate (Thermo, IL, USA) using a Fusion Solo chemiluminescence analyzer (Vilber Rourmat Marne la Vallee, France). Antibodies to STAT3 (H-190), STAT3 (B-7) phosphorylated at Tyr705 and actin (C-2) were purchased from Santa Cruz Biotechnology. Rabbit monoclonal antibodies on AKT, AKT (D9E) phosphorylated at Ser473, FGFR1 phosphorylated at Tyr 653/654, p42/44 MAPK, phosphorylated p42/44 MAPK, p38 MAPK and p38 MAPK phosphorylated at Tyr 180/182 were purchased from Cell Signaling Technology (MA, USA). Further, HRP-conjugated goat anti-mouse and rabbit secondary antibodies were purchased from Jackson Laboratories, while BGJ398 used in the experiment (against FGFR1/2/3) was purchased from Selleckchem (USA).
Under this ground, in order to determine whether BGJ398 can vary the state of AKT and STAT3 in the sphere cultured SKOV3ip1 cells, the monolayer cultured (MC) or sphere cultured (SC) SKOV3ip1 cells were subjected to treatment using 5 μM BGJ398, followed by examining the degree of phosphorylation due to the above treatment.
Further, the sphere cultured SKOV3ip1 cells were treated with 5 μM BGJ398 (BGJ), 3 μM TAE648 (TAE) and 5 μM imatinib (IMT), respectively. After 72 hours, a cell lysate was obtained and subjected to immunostaining, followed by analyzing active cellular expression of AKT and STAT3 with the antibody for the same. Further, a phosphorylation level of FGFR1 was used as a positive control group relative to BGJ treatment groups while actin was used as a loading control group. The immunostaining assay procedure was implemented in the same manner as in Example 1.
Since the cell survival of the sphere cultured SKOV3ip1 cells is inhibited by BGJ398 treatment, whether such cell survival inhibition is intermediated through JAK/STAT3 signaling pathway was further examined. […]

[3] = tested on: monolayer cultured SKOV3ip1 ovarian cancer cells; assay: crystal violet cell viability, 2D monolayer culture; settings: monolayer cultured SKOV3ip1, 72 hours, different concentrations, crystal violet colorimeter (FIG. 3)
Experimental: 2D monolayer culture was implemented in the following manner: cells were cultured at 37° C., 5% CO2 humidified atmosphere using RPMI 1640 medium (Corning, NY, USA) supplemented with 10% fetal bovine serum (Gibco, NY, USA) and 10 U/ml penicillin/streptomycin.
Crystal violet staining was implemented to determine the cell viability in the monolayer cultured cell model and sphere cultured cell model. In order to implement the crystal violet staining in the monolayer culture model, SKOV3ip1 cells (5×10^4) were dispensed in commercial 24-well plates and incubated overnight. Thereafter, the drug was dispensed with a desired concentration for experiment into each well, followed by further incubation for 72 hours. 300 μl of 0.2% crystal violet solution was added to each well, followed by further incubation for 20 minutes while gently stirring the same. The stained cells were washed with distilled water until a clean background is observed. For assessment using a colorimeter, the crystal violet dye was extracted with 1% SDS/PBS and absorbance was measured at 570 nm wavelength by EMax PLUS microplate reader (Molecular Device, USA).
as §2

[4] = tested on: sphere cultured SKOV3ip1 cells; assay: microscopic observation of aggregated (spheroid) form; settings: 5 μM BGJ398, 3 μM TAE648, 5 μM imatinib (FIG. 5)
Experimental: as §1

SKOV3-TR = assay: crystal violet staining assay, cisplatin and BGJ398, 2D culture; settings: 2D culture, cisplatin alone (FIG. 29)
Experimental: (§3) According to the same procedures as described in the previous examples, each cell line was subjected to 2D culture and a change thereof upon administration of cisplatin alone, BGJ398 alone or in combination with cisplatin was analyzed through crystal violet staining assay.

SKOV3ip1 = assay: as above; settings: SKOV3ip1, 2D culture, cisplatin alone (FIG. 29)
Experimental: as §3

[5] = tested on: SKOV3-TR ovarian cancer cells; assay: crystal violet cell viability in paclitaxel-resistant cells
Experimental: SKOV3-TR cell line was offered from Sood AK in MD-Anderson Cancer Center (USA) and then used in the present experiments.
Paclitaxel resistance of each of SKOV3 and SKOV3-TR was determined by measuring the cell viability through crystal violet colorimetric assay. This experiment was implemented three times and a difference in results thereof was estimated by student's t-test.
(§4) According to the same procedures as described in the previous examples, each cell line was divided and cultured by 2D monolayer culture and 3D sphere culture, respectively. Then, a change due to administration of BGJ398 alone or in combination with paclitaxel was analyzed through morphological analysis and crystal violet staining assay.

[6] = tested on: SKOV3-TR ovarian cancer cells; assay: microscopic analysis of cell shape change due to cytotoxicity; settings: single agent: 2.5 μM BGJ398 or 50 nM paclitaxel (FIG. 20)
Experimental: as §4
FIG. 20 illustrates a change in cell shape due to cytotoxicity under microscopic analysis, when paclitaxel alone, BGJ398 alone or in combination with paclitaxel was administered to SKOV3-TR ovarian cancer cells.

Row | Compound | cell viability [3] | cell viability [1] | phosphorylated AKT at Ser473 [2] | aggregated (spheroid) form of cells [4] | other results
1 | N#C/C(=C\c1ccc(O)c(O)c1)C(=O)NCc1ccccc1 [AG490, reference compound] | – | – | – | – | cell growth ([1]; sphere cultured SKOV3ip1, AG490 3.125 to 50 μM, 72 hours (FIG. 7A)): did not suppress cell growth; AKT and STAT3 phosphorylation ([2]; sphere cultured SKOV3ip1, 5 μM BGJ398 (FIG. 6), AG490, 72 hours (FIG. 7B)): not inhibited
2 | COc1cc(N2CCC(N3CCN(C)CC3)CC2)ccc1Nc1ncc(Cl)c(Nc2ccccc2S(=O)(=O)C(C)C)n1 [TAE684] | reduced by paclitaxel and TAE648 in a dose-dependent manner | TAE648 resistance was not identified | did not show such effects | spheroid degradation was not observed | –
3 | N.N.[Cl][Pt][Cl] [cisplatin, reference compound] | – | – | – | – | sensitivity to cisplatin (SKOV3-TR): exhibit sensitivity to cisplatin; sensitivity to cisplatin (SKOV3ip1): exhibit sensitivity to cisplatin
4 | Cc1ccc(NC(=O)c2ccc(CN3CCN(C)CC3)cc2)cc1Nc1nccc(-c2cccnc2)n1 [imatinib] | not effected | did not affect the cell viability | did not show such effects | spheroid degradation was not observed | –
5 | CC(=O)O[C@H]1C(=O)[C@@]2(C)[C@H]([C@H](OC(=O)c3ccccc3)[C@]3(O)C[C@H](OC(=O)[C@H](O)[C@@H](NC(=O)c4ccccc4)c4ccccc4)C(C)=C1C3(C)C)[C@]1(OC(C)=O)CO[C@@H]1C[C@@H]2O [paclitaxel, reference compound] | reduced by paclitaxel and TAE648 in a dose-dependent manner | more obviously resistant to paclitaxel than the monolayer cultured SKOV3ip1 cells | – | – | paclitaxel resistance ([5]; SKOV3-TR compared with SKOV3, crystal violet colorimetric assay (FIG. 15)): significantly higher than SKOV cell line; anticancer activity ([5]; paclitaxel alone (FIGS. 18, 19)): negligible; cytotoxicity and morphological change [6]: negligible cytotoxicity and no morphological change
